These results are taken from PubChem BioAssay (NCI).

Some test systems named below: HCC-2998 colon; OVCAR-5 ovarian; HL-60(TB) leukemia; RXF 393 renal; SNB-78 CNS; IGROV1 ovarian; KM12 colon; SF-295 CNS; MALME-3M melanoma; NCI-H226 lung; U251 CNS; CCRF-CEM leukemia; HCT-15 colon; EKVX NSCLC; OVCAR-8 ovarian; SK-OV-3 ovarian; K-562 leukemia; SF-539 CNS; HS 578T breast; MDA-MB-231 breast.
Common to all, as to assay: growth of human tumour cells (NCI), 48 h

Structures are written as SMILES.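 Test compounds were applied to cells in 96-well plates for 48 hours at 5 doses. The concentration for full growth arrest is given as TGI.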 *1 amine or outer side, *2 acyl side, *3 side chain or, on linkers, in order; H or OH if unused. Where a SMILES comes first, the peptide text is derived from it. [ ]: non-standard residue; d: D form. The star is where a group is joined. ξ: configuration not given here. X27 = O=C([C@H]1CCC[C@H]1N[*:1])[*:2]; ξW = NC(Cc1c[nH]c2ccccc12)C(=O)O; ξF = NC(Cc1ccccc1)C(=O)O; Boc = CC(C)(C)OC(=O)*; ξK = NCCCCC(N)C(=O)O; ξT = CC(O)C(N)C(=O)O; tBu = CC(C)(C)* A value given as a limit tells only on which side of the number the result lay.

As for `COc1ccccc1C1C(Cl)C(=O)N1n1cnc2ccccc2c1=O` (centres undefined), the TGI with HCC-2998 colon, in the assay on OVCAR-5 ovarian, with HL-60(TB) leukemia, in the assay on RXF 393 renal, in the assay with SNB-78 CNS and in the assay on IGROV1 ovarian was greater than 100 µM throughout. Moreover, the TGI with KM12 colon, with SF-295 CNS, in the assay with MALME-3M melanoma, in the assay on NCI-H226 lung, in the assay on U251 CNS and in the assay on CCRF-CEM leukemia was greater than 100 µM throughout. The TGI in the assay on HCT-15 colon, in the assay on EKVX NSCLC, in the assay on OVCAR-8 ovarian, with SK-OV-3 ovarian and in the assay with K-562 leukemia was greater than 100 µM in each case.
Turning to `Cc1[nH]c(=O)nc2c1C(NCCCN(C)C)c1cc(Cl)ccc1N2` (centres undefined), the TGI in the assay with HCC-2998 colon is 30.1 µM; in the assay with HL-60(TB) leukemia it was 34.4 µM; with RXF 393 renal, 27 µM; with SNB-78 CNS, 33.2 µM; in the assay with SF-539 CNS, 26.3 µM; in the assay with IGROV1 ovarian it was 30.1 µM. The TGI with KM12 colon was 30.3 µM; in the assay on SF-295 CNS it was 30.7 µM; in the assay on MALME-3M melanoma, 30.3 µM; in the assay on NCI-H226 lung it was 31 µM; in the assay on U251 CNS, 29.3 µM; in the assay on CCRF-CEM leukemia, 34.8 µM. Also, the TGI with EKVX NSCLC worked out at 30.1 µM; with OVCAR-8 ovarian, 28.7 µM; in the assay on SK-OV-3 ovarian it was 32.1 µM; in the assay on K-562 leukemia it was 26.9 µM.
As to `Oc1ccc([Te]CCNCC[Te]c2ccc(O)cc2)cc1`, the TGI with HCC-2998 colon is 38.2 µM; in the assay with OVCAR-5 ovarian it was 37.7 µM; with HL-60(TB) leukemia, 38.5 µM; with SNB-78 CNS, 78.6 µM; with IGROV1 ovarian, greater than 100 µM; in the assay with KM12 colon it was greater than 100 µM. Also, the TGI was 75.4 µM in the assay on SF-295 CNS; 69.3 µM in the assay with MALME-3M melanoma; 46.4 µM with NCI-H226 lung; 25.6 µM with U251 CNS; greater than 100 µM in the assay with CCRF-CEM leukemia; 19 µM with EKVX NSCLC. Further, the TGI in the assay on OVCAR-8 ovarian was 48 µM; in the assay with SK-OV-3 ovarian, 98.9 µM; in the assay with K-562 leukemia, greater than 100 µM.
Turning to `CC(OC(C)(C)C)C1NC(=O)C(CCCCNC(=O)OC(C)(C)C)NC(=O)C(Cc2c[nH]c3ccccc23)NC(=O)C(Cc2ccccc2)NC(=O)[C@H]2CCC[C@H]2NC(=O)C(Cc2ccccc2)NC1=O` (some centres undefined) (cyclo([X27][ξF][ξW][ξK](Boc)[ξT](tBu)[ξF])), the TGI with HS 578T breast is 28.4 µM; with HCC-2998 colon it was greater than 100 µM; with OVCAR-5 ovarian it was 59.8 µM; in the assay on HL-60(TB) leukemia, greater than 100 µM; in the assay with RXF 393 renal it was greater than 100 µM; in the assay on SF-539 CNS, greater than 100 µM. Besides, the TGI in the assay with IGROV1 ovarian is greater than 100 µM; in the assay with KM12 colon it was greater than 100 µM; in the assay on SF-295 CNS, 73.7 µM; in the assay on MALME-3M melanoma, greater than 100 µM; with NCI-H226 lung it was greater than 100 µM; in the assay on U251 CNS, greater than 100 µM. Also, the TGI with CCRF-CEM leukemia, in the assay on HCT-15 colon, with EKVX NSCLC, with MDA-MB-231 breast, in the assay on OVCAR-8 ovarian and with SK-OV-3 ovarian was greater than 100 µM throughout. In the assay on K-562 leukemia, this molecule showed a TGI greater than 100 µM.
For the molecule `S=C(NNC1=NCCCCN1)Nc1ccc(Cl)cc1`, the TGI in the assay on HS 578T breast was greater than 100 µM; with HCC-2998 colon, greater than 100 µM; with OVCAR-5 ovarian, greater than 100 µM; in the assay with HL-60(TB) leukemia, greater than 100 µM; with RXF 393 renal, greater than 100 µM; in the assay on SF-539 CNS it was 76.5 µM. The TGI with IGROV1 ovarian is greater than 100 µM; in the assay with KM12 colon it was greater than 100 µM; in the assay on SF-295 CNS it was 57.5 µM; with MALME-3M melanoma, 55.7 µM; in the assay with NCI-H226 lung, greater than 100 µM; in the assay on U251 CNS it was greater than 100 µM. Further, the TGI was greater than 100 µM in the assay with CCRF-CEM leukemia; greater than 100 µM in the assay with HCT-15 colon; greater than 100 µM in the assay with EKVX NSCLC; greater than 100 µM with MDA-MB-231 breast; greater than 100 µM with OVCAR-8 ovarian; 93.1 µM in the assay with SK-OV-3 ovarian. The same molecule displayed a TGI with K-562 leukemia greater than 100 µM.
Turning to `CCOc1ccc2nc3nc(=O)[nH]c(C)c3c(NCCCN(CC)CC)c2c1`, the TGI with HS 578T breast, in the assay with HCC-2998 colon, with OVCAR-5 ovarian, in the assay on HL-60(TB) leukemia, in the assay on RXF 393 renal and with SF-539 CNS was greater than 100 µM in each case. The TGI with IGROV1 ovarian, in the assay on KM12 colon, with SF-295 CNS, with MALME-3M melanoma, in the assay on NCI-H226 lung and in the assay on U251 CNS was greater than 100 µM each time. Further, the TGI in the assay on CCRF-CEM leukemia, in the assay with HCT-15 colon, in the assay on EKVX NSCLC, in the assay with MDA-MB-231 breast, in the assay on OVCAR-8 ovarian and in the assay with SK-OV-3 ovarian was greater than 100 µM throughout. Further, the TGI in the assay with K-562 leukemia is greater than 100 µM.
In the case of `Cc1ccc(S(=O)(=O)N2CCN(S(=O)(=O)c3ccc(C)cc3)CCN(S(=O)(=O)c3ccc(C)cc3)Cc3cc(C#N)c(C#N)cc3CN(S(=O)(=O)c3ccc(C)cc3)CC2)cc1`, the TGI in the assay on HS 578T breast, in the assay with HCC-2998 colon, with OVCAR-5 ovarian, in the assay on HL-60(TB) leukemia, with RXF 393 renal and in the assay with SF-539 CNS was greater than 100 µM in each case. For the same molecule, the TGI with IGROV1 ovarian, in the assay on KM12 colon, with SF-295 CNS, with MALME-3M melanoma, with NCI-H226 lung and in the assay on U251 CNS was greater than 100 µM in each case. Besides, the TGI with CCRF-CEM leukemia, with HCT-15 colon, in the assay on EKVX NSCLC, with MDA-MB-231 breast, with OVCAR-8 ovarian and in the assay with SK-OV-3 ovarian was greater than 100 µM in each case. The TGI in the assay with K-562 leukemia was greater than 100 µM.
